Target: T1, CFTR (Homo sapiens, UniProt P13569, DEL508-508)
T1 construct: Primary CF airway epithelial cells were obtained from the UNC Cystic Fibrosis Tissue Procurement and Cell Culture Core; host or cells: primary CF airway epithelial cells, differentiated at the air-liquid interface
Test: Equivalent current assay in primary CF airway epithelial cells (NAUC, combination with 1st site corrector FDL169 or VX-809)
Type: cell-based
Conditions: 37° C., 24 h
Method: Primary CF airway epithelial cells were obtained from the UNC Cystic Fibrosis Tissue Procurement and Cell Culture Core. The cells are grown at 37° C. in a Heracell 150i incubator using growth media (BEGM, Fischer). […] Two days before the Ussing assay the mucus on the apical surface of the cells was aspirated after incubating with 200 μL of differentiation media for at least thirty (30) minutes. One day before the Ussing assay test compounds were added to the basolateral surface of the cells at various test concentrations dissolved in DMSO. Duplicate wells were prepared giving a n=3 or n=4 protocol.
Cells were treated for 24 hours with various combinations and concentrations of the test articles, reference standard (3 μM VX809 or 3 μM FDL169, positive control). Compounds stock solutions were prepared in DMSO and diluted 1/1000 into ALI media to their final assay concentration. Cells were treated with combination solutions (2 mL of each dilution) and incubated at 37° C. for 24 h.
For the equivalent current assay, cells on four Transwell (24-well) plates were treated. Each Transwell plate was filled with 200 μl of HBS on the apical surface and 2 ml on the basolateral surface. Plates were placed horizontally in a heated mount at 37° C., and equilibrated for several minutes. Resting current was measured for 15 min and then blocked by the apical addition of 5 μM benzamil. After 20 min, 10 μM forskolin and 1 μM VX770 were added to both the apical and basolateral side to stimulate CFTR. An increase in chloride current is seen as an upward deflection of the trace.
The raw data, current vs. time for the Ussing chamber (sampling interval: 10 s) and voltage vs. time and resistance vs. time for the equivalent current assay (sampling interval: 5 minutes) were transferred to Excel (Microsoft Office Professional, version 14.0.7106.5003) for analysis. […] This average is equivalent to the sum of the average forskolin activated and the average VX770-potentiated currents. The average current measured in vehicle (0.1% DMSO) treated cells, Iv, was subtracted from the current for the test article, ITA, or from the corrector reference standard VX809 (3 uM ISTD). For replicate measurements, the average vehicle subtracted response for the test article, was normalized to the average vehicle subtracted inhibitor response of the reference corrector VX809 (3 μM).
A second endpoint, for the equivalent current assay, evaluated was NAUC, the normalized area under the curve (AUC) measuring the response after addition of forskolin and VX770 to the time point right before the addition of the CFTR inhibitor. The AUC is effectively the average response multiplied by the duration of the response.
NAUCTA=[AUCTA−AUCV,ave]/[AUCVx809r,ave−AUCV,ave] (Equation 2).
Experiments were run with a minimum of n=4 replicates per concentration. Since the distribution for the ratio of two normal distributions is a Cauchy distribution, the median value must be used for the average and the average deviation must be used for the error of all normalized data.
E=Emin+(Emax−Emin)/(1+10^((LogEC5OS)*nH)) (Equation 3)

[1] = test compound 10 μM in combination with 1st site corrector VX-809 (3 μM)
[2] = test compound 1 μM in combination with 1st site corrector VX-809 (3 μM)
[3] = test compound 3 μM in combination with 1st site corrector VX-809 (3 μM)
[4] = test compound 1 μM in combination with 1st site corrector FDL169 (3 μM)
[5] = test compound 3 μM in combination with 1st site corrector FDL169 (3 μM)
[6] = test compound 10 μM in combination with 1st site corrector FDL169 (3 μM)

T1 sequence (P13569 with tags, fused parts or gaps DEL508-508): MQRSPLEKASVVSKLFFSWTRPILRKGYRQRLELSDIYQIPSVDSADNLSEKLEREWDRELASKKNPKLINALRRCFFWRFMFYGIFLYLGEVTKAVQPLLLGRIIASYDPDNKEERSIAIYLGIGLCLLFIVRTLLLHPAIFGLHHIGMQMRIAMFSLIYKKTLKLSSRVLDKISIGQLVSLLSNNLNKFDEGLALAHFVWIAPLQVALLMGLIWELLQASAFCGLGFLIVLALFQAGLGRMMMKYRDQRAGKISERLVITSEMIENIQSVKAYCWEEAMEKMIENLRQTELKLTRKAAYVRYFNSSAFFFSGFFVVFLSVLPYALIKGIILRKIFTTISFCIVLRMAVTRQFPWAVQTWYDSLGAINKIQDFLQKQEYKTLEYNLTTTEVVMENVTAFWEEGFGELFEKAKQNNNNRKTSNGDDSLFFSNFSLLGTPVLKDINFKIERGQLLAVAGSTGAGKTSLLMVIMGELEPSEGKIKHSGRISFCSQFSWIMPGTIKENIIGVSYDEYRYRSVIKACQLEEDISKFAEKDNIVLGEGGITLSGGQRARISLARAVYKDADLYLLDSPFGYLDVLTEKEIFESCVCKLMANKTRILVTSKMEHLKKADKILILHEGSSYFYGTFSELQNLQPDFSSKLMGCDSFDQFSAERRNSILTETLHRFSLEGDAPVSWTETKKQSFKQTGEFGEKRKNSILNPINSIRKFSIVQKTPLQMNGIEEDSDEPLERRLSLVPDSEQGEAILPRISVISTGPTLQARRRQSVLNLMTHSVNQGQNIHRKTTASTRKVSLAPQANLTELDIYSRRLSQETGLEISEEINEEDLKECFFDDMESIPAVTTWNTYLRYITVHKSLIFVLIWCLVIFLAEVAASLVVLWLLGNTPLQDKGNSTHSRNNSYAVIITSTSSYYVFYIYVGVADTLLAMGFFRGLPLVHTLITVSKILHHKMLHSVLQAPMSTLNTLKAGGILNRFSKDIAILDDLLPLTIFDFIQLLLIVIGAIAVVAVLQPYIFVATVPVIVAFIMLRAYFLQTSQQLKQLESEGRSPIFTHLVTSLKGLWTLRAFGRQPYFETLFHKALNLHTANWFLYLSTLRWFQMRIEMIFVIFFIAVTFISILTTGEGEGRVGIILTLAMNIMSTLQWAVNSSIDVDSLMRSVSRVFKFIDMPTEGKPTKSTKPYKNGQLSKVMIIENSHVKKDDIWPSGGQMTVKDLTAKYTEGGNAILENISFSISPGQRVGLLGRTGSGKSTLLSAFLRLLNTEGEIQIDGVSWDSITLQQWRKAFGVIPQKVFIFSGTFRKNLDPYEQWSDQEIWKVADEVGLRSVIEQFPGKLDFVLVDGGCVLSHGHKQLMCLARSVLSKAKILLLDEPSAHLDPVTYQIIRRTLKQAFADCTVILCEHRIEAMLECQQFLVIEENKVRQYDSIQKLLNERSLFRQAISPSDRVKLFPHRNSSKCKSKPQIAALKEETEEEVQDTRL

## CC(=O)OCOC(=O)[C@H]1[C@@H](C(=O)N(C)c2cc(Cl)cc(Cl)c2)[C@H]2CC(F)(F)CN2C12C(=O)Nc1c(Cl)cc(Cl)cc12 (mixture of isomers) [Example 257, acetoxymethyl (1′R,2′S,3R,7a′R)-5,7-dichloro-1-((3,5-dichlorophenyl)(methyl)carbamoyl)-6′,6′-difluoro-2-oxo-1′,2′,5′,6′,7′,7a′-hexahydrospiro[indoline-3,3′-pyrrolizine]-2′-carboxylate]
[1]
  Nauc @ 10 μM: +++ (NAUC “+++” refers to an observed NAUC>170% of positive control)

## CN(C)S(=O)(=O)NC(=O)C1C(C(=O)Nc2cc(Cl)cc(Cl)c2)C2C[C@](C)(O)CN2C12C(=O)Nc1c(Cl)cc(Cl)cc12 (stereo partly drawn) [Example 248, (6′S)-5,7-dichloro-N1′-(3,5-dichlorophenyl)-N2′-(N,N-dimethylsulfamoyl)-6′-hydroxy-6′-methyl-2-oxo-1′,2′,5′,6′,7′,7a′-hexahydrospiro[indoline-3,3′-pyrrolizine]-1,2′-dicarboxamide]
[2]
  Nauc @ 1 μM: + (NAUC “+” refers to an observed NAUC <140% of positive control)
[3]
  Nauc @ 3 μM: +++ (NAUC “+++” refers to an observed NAUC>170% of positive control)
[1]
  Nauc @ 10 μM: +++ (NAUC “+++” refers to an observed NAUC>170% of positive control)

## CN(C)C(=O)CN1C(=O)[C@]2(c3cc(Cl)cc(Cl)c31)[C@@H](C(=O)O)[C@@H](C(=O)N(CC1CC1)c1cc(Cl)cc(Cl)c1)[C@H]1CC(F)(F)CN12 [Example 205]
[4]
  Nauc @ 1 μM: + (NAUC “+” refers to an observed NAUC <140% of positive control)
[5]
  Nauc @ 3 μM: ++ (NAUC “++” refers to an observed NAUC 170-140% of positive control)
[6]
  Nauc @ 10 μM: ++ (NAUC “++” refers to an observed NAUC 170-140% of positive control)

## O=C(O)[C@H]1[C@@H](C(=O)N(CC2CC2)c2cc(Cl)cc(Cl)c2)[C@H]2CC(F)(F)CN2[C@]12C(=O)N(C1CC1)c1c(Cl)cc(Cl)cc12 [Example 208, (1′R,2′S,3R,7a′R)-5,7-dichloro-1-cyclopropyl-1′-((cyclopropylmethyl)(3,5-dichlorophenyl)carbamoyl)-6′,6′-difluoro-2-oxo-1′,2′,5′,6′,7′,7a′-hexahydrospiro[indoline-3.3′-pyrrolizine]-2′-carboxylic acid]
[4]
  Nauc @ 1 μM: ++ (NAUC “++” refers to an observed NAUC 170-140% of positive control)
[5]
  Nauc @ 3 μM: ++ (NAUC “++” refers to an observed NAUC 170-140% of positive control)
[6]
  Nauc @ 10 μM: + (NAUC “+” refers to an observed NAUC <140% of positive control)

## CN(O)C(=O)C1C(C(=O)N(C)c2cc(Cl)cc(Cl)c2)C2CC(F)(F)CN2C12C(=O)Nc1c(Cl)cc(Cl)cc12 (single isomer, unassigned) [Example 229b, 5,7-dichloro-N1′-(3,5-dichlorophenyl)-6′,6′-difluoro-N2′-hydroxy-N1′,N2′-dimethyl-2-oxo-1′,2′,5′,6′,7′,7a′-hexahydrospiro[indoline-3,3′-pyrrolizine]-1′,2′-dicarboxamide]
[1]
  Nauc @ 10 μM: + (NAUC “+” refers to an observed NAUC <140% of positive control)

## O=C(Nc1cc(Cl)cc(Cl)c1)C1CN(CC(F)(F)F)C2(C(=O)Nc3c(Cl)cc(Cl)cc32)C1C(=O)O (stereo not shown) [Example 79a]
[2]
  Nauc @ 1 μM: + (NAUC “+” refers to an observed NAUC <140% of positive control)
[3]
  Nauc @ 3 μM: + (NAUC “+” refers to an observed NAUC <140% of positive control)
[1]
  Nauc @ 10 μM: + (NAUC “+” refers to an observed NAUC <140% of positive control)

## CC(C)(C)CN(C(=O)[C@H]1[C@H]2CC3(CC3)CN2[C@]2(C(=O)Nc3c(Cl)cc(Cl)cc32)[C@H]1C(=O)O)c1cc(Cl)cc(Cl)c1 (single isomer, unassigned) [Example 275.7a]
[4]
  Nauc @ 1 μM: +++ (NAUC “+++” refers to an observed NAUC>170% of positive control)
[5]
  Nauc @ 3 μM: +++ (NAUC “+++” refers to an observed NAUC>170% of positive control)
[6]
  Nauc @ 10 μM: +++ (NAUC “+++” refers to an observed NAUC>170% of positive control)

## CN1C(C(F)(F)F)C(C(=O)Nc2cc(Cl)cc(Cl)c2)C(C(=O)O)C12C(=O)Nc1c(Cl)cc(Cl)cc12 (stereo not shown) [Example 43]
[3]
  Nauc @ 3 μM: +++ (NAUC “+++” refers to an observed NAUC>170% of positive control)
[1]
  Nauc @ 10 μM: ++ (NAUC “++” refers to an observed NAUC 170-140% of positive control)

## COc1cc(C(F)(F)F)cc(NC(=O)C2C3C[C@](C)(O)CN3C3(C(=O)Nc4c(Cl)cc(Cl)cc43)C2C(=O)O)n1 (stereo partly shown) [Example 6]
[3]
  Nauc @ 3 μM: +++ (NAUC “+++” refers to an observed NAUC>170% of positive control)
[1]
  Nauc @ 10 μM: +++ (NAUC “+++” refers to an observed NAUC>170% of positive control)

## O=C(Nc1ccc2ccccc2c1)[C@H]1[C@H]2CC(F)(F)CN2[C@]2(C(=O)Nc3c(Cl)cc(Cl)cc32)[C@H]1C(=O)O [Example 117]
[2]
  Nauc @ 1 μM: + (NAUC “+” refers to an observed NAUC <140% of positive control)
[3]
  Nauc @ 3 μM: ++ (NAUC “++” refers to an observed NAUC 170-140% of positive control)
[1]
  Nauc @ 10 μM: + (NAUC “+” refers to an observed NAUC <140% of positive control)

## CC(C)(C)CN(C(=O)[C@H]1[C@H]2C[C@](C)(O)CN2[C@]2(C(=O)Nc3c(Cl)cc(Cl)cc32)[C@H]1C(=O)O)c1cc(Cl)cc(Cl)c1 [Example 91, (1′R,2′S,3R,6′S,7a′R)-5,7-dichloro-1′-((3,5-dichlorophenyl)(neopentyl)carbamoyl)-6′-hydroxy-6′-methyl-2-oxo-1′,2′,5′,6′,7′,7a′-hexahydrospiro[indoline-3,3′-pyrrolizine]-2′-carboxylic acid]
[4]
  Nauc @ 1 μM: ++ (NAUC “++” refers to an observed NAUC 170-140% of positive control)
[5]
  Nauc @ 3 μM: ++ (NAUC “++” refers to an observed NAUC 170-140% of positive control)

## O=C(Nc1cncc(C(F)(F)F)n1)C1C2C[C@@](O)(C(F)(F)F)CN2C2(C(=O)Nc3c(Cl)cc(Cl)cc32)C1C(=O)O (stereo partly shown) [Example 17]
[3]
  Nauc @ 3 μM: +++ (NAUC “+++” refers to an observed NAUC>170% of positive control)
[1]
  Nauc @ 10 μM: +++ (NAUC “+++” refers to an observed NAUC>170% of positive control)

## O=C(Nc1cc(Cl)cc(Cl)c1)C1C(C(F)(F)c2ccc(Cl)cc2)NC2(C(=O)Nc3c(Cl)cc(Cl)cc32)C1C(=O)O (stereo not shown) [Example 67.9a, 5,7-dichloro-5,7′-((4-chlorophenyl)difluoromethyl)-4′-((3,5-dichlorophenyl)carbamoyl)-2-oxospiro[indoline-3,2′-pyrrolidine]-3′-carboxylic acid]
[1]
  Nauc @ 10 μM: + (NAUC “+” refers to an observed NAUC <140% of positive control)

## O=C(Nc1cncc(C(F)(F)F)n1)C1C2CCCN2C2(C(=O)Nc3c(Cl)cc(Cl)cc32)C1C(=O)O (stereo not shown) [Example 29]
[3]
  Nauc @ 3 μM: ++ (NAUC “++” refers to an observed NAUC 170-140% of positive control)
[1]
  Nauc @ 10 μM: +++ (NAUC “+++” refers to an observed NAUC>170% of positive control)

## CC(C)(C)C(C)(C)CN(C(=O)[C@H]1[C@H]2C[C@](C)(OCc3ccccc3)CN2[C@]2(C(=O)Nc3c(Cl)cc(Cl)cc32)[C@H]1C(=O)O)c1cc(Cl)cc(Cl)c1 [Example 95]
[4]
  Nauc @ 1 μM: +++ (NAUC “+++” refers to an observed NAUC>170% of positive control)
[5]
  Nauc @ 3 μM: +++ (NAUC “+++” refers to an observed NAUC>170% of positive control)
[6]
  Nauc @ 10 μM: +++ (NAUC “+++” refers to an observed NAUC>170% of positive control)

## CN(O)C(=O)C1C(C(=O)Nc2cc(Cl)cc(Cl)c2)C2CCCN2C12C(=O)Nc1c(Cl)cc(Cl)cc12 (single isomer, unassigned) [Example 235a, 5,7-dichloro-N1′-(3,5-dichlorophenyl)-N2′-hydroxy-N2′-methyl-2-oxo-1′,2′,5′,6′,7′,7a′-hexahydrospiro[indoline-3,3′-pyrrolizine]-1′,2′-dicarboxamide]
[2]
  Nauc @ 1 μM: ++ (NAUC “++” refers to an observed NAUC 170-140% of positive control)
[3]
  Nauc @ 3 μM: +++ (NAUC “+++” refers to an observed NAUC>170% of positive control)
[1]
  Nauc @ 10 μM: +++ (NAUC “+++” refers to an observed NAUC>170% of positive control)

Source: patent US20230055237A1, “COMPOUNDS AND METHODS FOR THE TREATMENT OF CYSTIC FIBROSIS” (Flatley Discovery Lab, LLC, priority 2019, published 2023)
